Experimental data as given in patent US20190233884A1 (University of Southern California, priority 2016, published 2019).

Test system: patients with refractory metastatic colorectal cancer (mCRC)
Test: PFS, OS and disease control in the training (evaluation) cohort of refractory mCRC patients receiving TAS-102 (n=52, Japan), by baseline characteristics, SNP genotype and toxicity
Assay type: in vivo, human
Conditions: for OS HR (95% CI)‡ / PFS HR (95% CI) ‡: multivariable; for OS HR (95% CI)† / PFS HR (95% CI) †: univariate
Description: All patients underwent the treatment in salvage-line setting. […]
(§1) Genomic DNA was extracted from peripheral whole blood in patients of all cohorts using the QIAmp Kit (Qiagen, Valencia, Calif., USA) according to the manufacturer's protocol (www.qiagen.com). The candidate SNPs were genotyped using PCR-based direct DNA sequence analysis by ABI 3100A Capillary Genetic Analyzer and Sequencing Scanner v1.0 (Applied Biosystems). Amplification of extracted DNA was carried out using both forward and reverse primers for each gene polymorphism as shown in Table 1. […] The investigators analyzing SNPs were blinded to the clinical data of the study patients.
The primary endpoint in this study was progression-free survival (PFS), and the secondary endpoints were overall survival (OS) and disease control rate (DCR). PFS was calculated from the date of starting treatment to the first observation of disease progression or death from any cause. If a patient had no disease progression or death, PFS was censored at the date of last follow up. OS was calculated from the date of starting treatment until the date of death from any cause or the date of the last follow-up, at which point OS was censored. The disease control rate (DCR) was defined as the proportion of patients who achieved a stable disease (SD) or […] according to RECISTv1.1. Chi-square test was used to examine the difference in baseline patient characteristics among the three cohorts. Allelic distribution of all SNPs by ethnicity for deviation from Hardy-Weinberg equilibrium and the allelic frequencies of SNPs were tested using the Chi-square tests with one degree of freedom. The associations between candidate SNPs and disease control, and toxicities were examined using contingency tables and Fisher's exact test. The associations of SNPs with PFS and OS were analysed using Kaplan-Meier curves and the log-rank test. Because the true mode of inheritance of candidate SNPs was not established yet, a codominant or dominant genetic model if appropriate was considered.
All patients underwent the treatment in salvage-line setting. […] In all patients, adverse events were graded according to the Common Terminology Criteria for Adverse Events, version 4.0. […]
as §1, with “tested” for “genotyped”, “Biosystems).” for “Biosystems). Amplification of extracted DNA was carried out using both forward and reverse primers for each gene polymorphism as shown in Table 1.”, “data.” for “data of the study patients.”
The primary endpoint in this study was progression-free survival (PFS), and the secondary endpoints were overall survival (OS) and disease control rate (DCR).

Trifluridine/tipiracil [TAS-102]
Disease Control Rate PD: 10 (71%) | Disease Control Rate SD: 4 (29%) | OS median, months (95% CI) (ATR rs2227928 A/A): 5.7 (2.7, 12.4) months | PFS median, months (95% CI) (ATR rs2227928 A/A): 2.1 (1.6, 3.4) months | OS median, months (95% CI) (ATR rs2227928 A/G): 8.1 (4.9, 15.6) months | PFS median, months (95% CI) (ATR rs2227928 A/G): 2.9 (1.6, 3.4) months | OS HR (95% CI)‡ (ATR rs2227928 A/G vs A/A): 0.68 (0.26, 1.74) | PFS HR (95% CI) ‡ (ATR rs2227928 A/G vs A/A): 0.82 (0.41, 1.63) | OS HR (95% CI)† (ATR rs2227928 A/G vs A/A): 0.71 (0.28, 1.78) | PFS HR (95% CI) † (ATR rs2227928 A/G vs A/A): 0.75 (0.38, 1.51) | OS median, months (95% CI) (ATR rs2227928 Any G): 8.3 (6.3, 15.6) months | PFS median, months (95% CI) (ATR rs2227928 Any G): 3.0 (2.1, 3.7) months | OS HR (95% CI)‡ (ATR rs2227928 Any G vs A/A): 0.50 (0.20, 1.27) | PFS HR (95% CI) ‡ (ATR rs2227928 Any G vs A/A): 0.67 (0.35, 1.29) | OS HR (95% CI)† (ATR rs2227928 Any G vs A/A): 0.57 (0.24, 1.40) | PFS HR (95% CI) † (ATR rs2227928 Any G vs A/A): 0.64 (0.33, 1.23) | PFS median, months (95% CI) (ATR rs2227928 G/G): 3.7 (2.1, 6.6) months | OS HR (95% CI)‡ (ATR rs2227928 G/G vs A/A): 0.18 (0.04, 0.93) | PFS HR (95% CI) ‡ (ATR rs2227928 G/G vs A/A): 0.43 (0.17, 1.08) | OS HR (95% CI)† (ATR rs2227928 G/G vs A/A): 0.28 (0.06, 1.31) | PFS HR (95% CI) † (ATR rs2227928 G/G vs A/A): 0.46 (0.19, 1.10) | OS median, months (95% CI) (BRCA1 rs16941 Any C): 8.3 (5.3, 14.8+) months | PFS median, months (95% CI) (BRCA1 rs16941 Any C): 3.0 (2.0, 4.2) months | OS HR (95% CI)‡ (BRCA1 rs16941 Any C vs T/T): 1.14 (0.46, 2.82) | PFS HR (95% CI) ‡ (BRCA1 rs16941 Any C vs T/T): 1.04 (0.54, 2.00) | OS HR (95% CI)† (BRCA1 rs16941 Any C vs T/T): 0.90 (0.38, 2.15) | PFS HR (95% CI) † (BRCA1 rs16941 Any C vs T/T): 0.87 (0.47, 1.64) | PFS median, months (95% CI) (BRCA1 rs16941 C/C): 2.7 (2.0, 4.2) months | OS HR (95% CI)‡ (BRCA1 rs16941 C/C vs T/T): 0.37 (0.05, 3.07) | PFS HR (95% CI) ‡ (BRCA1 rs16941 C/C vs T/T): 1.66 (0.58, 4.74) | OS HR (95% CI)† (BRCA1 rs16941 C/C vs T/T): 0.28 (0.04, 2.20) | PFS HR (95% CI) † (BRCA1 rs16941 C/C vs T/T): 1.06 (0.38, 2.90) | OS median, months (95% CI) (BRCA1 rs16941 T/C): 8.1 (3.4, 14.8+) months | PFS median, months (95% CI) (BRCA1 rs16941 T/C): 3.2 (1.8, 4.6) months | OS HR (95% CI)‡ (BRCA1 rs16941 T/C vs T/T): 1.36 (0.55, 3.40) | PFS HR (95% CI) ‡ (BRCA1 rs16941 T/C vs T/T): 0.94 (0.47, 1.88) | OS HR (95% CI)† (BRCA1 rs16941 T/C vs T/T): 1.13 (0.47, 2.74) | PFS HR (95% CI) † (BRCA1 rs16941 T/C vs T/T): 0.84 (0.43, 1.62) | OS median, months (95% CI) (BRCA1 rs16941 T/T): 6.3 (4.4, 15.6+) months | PFS median, months (95% CI) (BRCA1 rs799917 A/A): 2.7 (2.0, 4.2) months | OS HR (95% CI)‡ (BRCA1 rs799917 A/A vs G/G): 0.37 (0.05, 3.07) | PFS HR (95% CI) ‡ (BRCA1 rs799917 A/A vs G/G): 1.66 (0.58, 4.74) | OS HR (95% CI)† (BRCA1 rs799917 A/A vs G/G): 0.28 (0.04, 2.20) | PFS HR (95% CI) † (BRCA1 rs799917 A/A vs G/G): 1.06 (0.38, 2.90) | OS median, months (95% CI) (BRCA1 rs799917 Any A): 8.3 (5.3, 14.8+) months | PFS median, months (95% CI) (BRCA1 rs799917 Any A): 3.0 (2.0, 4.2) months | OS HR (95% CI)‡ (BRCA1 rs799917 Any A vs G/G): 1.14 (0.46, 2.82) | PFS HR (95% CI) ‡ (BRCA1 rs799917 Any A vs G/G): 1.04 (0.54, 2.00) | OS HR (95% CI)† (BRCA1 rs799917 Any A vs G/G): 0.90 (0.38, 2.15) | PFS HR (95% CI) † (BRCA1 rs799917 Any A vs G/G): 0.87 (0.47, 1.64) | OS median, months (95% CI) (BRCA1 rs799917 G/A): 8.1 (3.4, 14.8+) months | PFS median, months (95% CI) (BRCA1 rs799917 G/A): 3.2 (1.8, 4.6) months | OS HR (95% CI)‡ (BRCA1 rs799917 G/A vs G/G): 1.36 (0.55, 3.40) | PFS HR (95% CI) ‡ (BRCA1 rs799917 G/A vs G/G): 0.94 (0.47, 1.88) | OS HR (95% CI)† (BRCA1 rs799917 G/A vs G/G): 1.13 (0.47, 2.74) | PFS HR (95% CI) † (BRCA1 rs799917 G/A vs G/G): 0.84 (0.43, 1.62) | OS median, months (95% CI) (BRCA1 rs799917 G/G): 6.3 (4.4, 15.6+) months | OS median, months (95% CI) (BRCA2 rs144848 A/A): 8.3 (5.4, 12.4) months | PFS median, months (95% CI) (BRCA2 rs144848 A/A): 2.7 (2.0, 3.4) months | PFS median, months (95% CI) (BRCA2 rs144848 A/C): 3.5 (1.5, 4.9) months | OS HR (95% CI)‡ (BRCA2 rs144848 A/C vs A/A): 0.97 (0.34, 2.76) | PFS HR (95% CI) ‡ (BRCA2 rs144848 A/C vs A/A): 0.82 (0.39, 1.72) | OS HR (95% CI)† (BRCA2 rs144848 A/C vs A/A): 0.91 (0.33, 2.57) | PFS HR (95% CI) † (BRCA2 rs144848 A/C vs A/A): 0.76 (0.37, 1.56) | OS median, months (95% CI) (BRCA2 rs144848 Any C): 8.1 (2.8, 15.6+) months | PFS median, months (95% CI) (BRCA2 rs144848 Any C): 3.3 (1.6, 4.6) months | OS HR (95% CI)‡ (BRCA2 rs144848 Any C vs A/A): 1.14 (0.46, 2.79) | PFS HR (95% CI) ‡ (BRCA2 rs144848 Any C vs A/A): 0.92 (0.48, 1.78) | OS HR (95% CI)† (BRCA2 rs144848 Any C vs A/A): 1.07 (0.44, 2.58) | PFS HR (95% CI) † (BRCA2 rs144848 Any C vs A/A): 0.82 (0.43, 1.54) | OS median, months (95% CI) (BRCA2 rs144848 C/C): 8.1 (2.7, 8.1+) months | PFS median, months (95% CI) (BRCA2 rs144848 C/C): 2.7 (0.9, 6.0+) months | OS HR (95% CI)‡ (BRCA2 rs144848 C/C vs A/A): 1.62 (0.44, 6.02) | PFS HR (95% CI) ‡ (BRCA2 rs144848 C/C vs A/A): 1.28 (0.47, 3.50) | OS HR (95% CI)† (BRCA2 rs144848 C/C vs A/A): 1.48 (0.41, 5.34) | PFS HR (95% CI) † (BRCA2 rs144848 C/C vs A/A): 0.99 (0.38, 2.59) | OS median, months (95% CI) (CHEK2 rs22236142 Any C): 8.3 (5.4, 15.6+) months | PFS median, months (95% CI) (CHEK2 rs22236142 Any C): 2.6 (2.1, 3.4) months | OS HR (95% CI)‡ (CHEK2 rs22236142 Any C vs G/G): 0.66 (0.26, 1.65) | PFS HR (95% CI) ‡ (CHEK2 rs22236142 Any C vs G/G): 1.15 (0.59, 2.22) | OS HR (95% CI)† (CHEK2 rs22236142 Any C vs G/G): 0.84 (0.35, 2.00) | PFS HR (95% CI) † (CHEK2 rs22236142 Any C vs G/G): 1.33 (0.70, 2.50) | OS median, months (95% CI) (CHEK2 rs22236142 C/C): 7.5 (3.3, 15.6+) months | PFS median, months (95% CI) (CHEK2 rs22236142 C/C): 2.7 (1.6, 4.4) months | OS HR (95% CI)‡ (CHEK2 rs22236142 C/C vs G/G): 0.88 (0.28, 2.77) | PFS HR (95% CI) ‡ (CHEK2 rs22236142 C/C vs G/G): 1.18 (0.50, 2.78) | OS HR (95% CI)† (CHEK2 rs22236142 C/C vs G/G): 0.93 (0.31, 2.81) | PFS HR (95% CI) † (CHEK2 rs22236142 C/C vs G/G): 1.15 (0.49, 2.74) | OS median, months (95% CI) (CHEK2 rs22236142 G/C): 8.3 (4.9, 12.4+) months | PFS median, months (95% CI) (CHEK2 rs22236142 G/C): 2.5 (1.8, 3.5) months
